From patent publication US20210346329A1, “TCA CYCLE INTERMEDIATES AND METHODS OF USE THEREOF” (IMBRIA PHARMACEUTICALS, INC., priority 2018, published 2021)

Assay: Tissue distribution of radioactivity (whole-body sections, phosphor imaging, image densitometry)
Settings: IV 10 mg/kg
Protocol: The plasma-time course, routes and rates of excretion, and tissue distribution of radioactivity following a single oral dose of ^14C-labeled citrate or single oral dose of ^14C-labeled succinate were analyzed in rats.
CD® rats were obtained from Charles River Laboratories. Animals were 9-11 weeks in age at beginning of study.
Animals given intravenous ^14C-succinate were not kept in a fasting state. ^14C-succinate was administered by tail vein injection.
At 0.5, 1, 2, 4, 8, and 24 hours post-dose, after terminal blood collections, euthanized animals were frozen in a hexane/dry ice bath and embedded in a 5% carboxymethylcellulose matrix according to MPI Research SOP IMG-23.
Sections of approximately 30 μm thickness were taken in the sagittal plane. Appropriate sections selected at various levels of interest in the block were collected to encompass the following tissues, organs, and biological fluids, where possible: adrenal gland, bladder and contents (urine), blood (cardiac), bone, bone marrow, brain, epididymis, eye, fat (brown), fat (white), heart, kidney, large intestine/cecum and contents, liver, lung, muscle, pancreas, prostate/uterus, salivary glands, skin, small intestine and contents, spleen, stomach and contents, testes/ovaries, thymus, thyroid, and mesenteric lymph nodes.
Quantification, relative to the calibration standards, was performed by image densitometry using MCID™ image analysis software according to MPI Research SOP IMG-24. A standard curve was constructed from the integrated response (MDC/mm^2) and the nominal concentrations of the [^14C]calibration standards. The concentrations of radioactivity were expressed as μCi/g and converted to μg or ng equivalents of [^14C]Test Article per gram sample (ng-eq/g or μg-eq/g) using the specific activity of administered [^14C]Test Article dose formulation. A lower limit of quantification (LLOQ) was applied to the data. The LLOQ was determined using the radioactive concentration of the lowest calibration standard used to generate a calibration curve divided by the specific activity of the dose formulation (μCi/mg). Artifacts, such as those produced by dislodged contents of the alimentary canal, were excluded from analysis during image analysis.

- Radioactivity in tissue (Bone marrow, 0.5 Hour): 1314 ng Equivalents test article/g
- Radioactivity in tissue (Bone marrow, 1 Hour): 1750 ng Equivalents test article/g
- Radioactivity in tissue (Bone marrow, 2 Hours): 1398 ng Equivalents test article/g
- Radioactivity in tissue (Bone marrow, 4 Hours): 1419 ng Equivalents test article/g
- Radioactivity in tissue (Bone marrow, 8 Hours): 1019 ng Equivalents test article/g
- Radioactivity in tissue (Bone marrow, 24 Hours): 769 ng Equivalents test article/g
- Radioactivity in tissue (Bone, 0.5 Hour): 3128 ng Equivalents test article/g
- Radioactivity in tissue (Bone, 1 Hour): 3200 ng Equivalents test article/g
- Radioactivity in tissue (Bone, 2 Hours): 1989 ng Equivalents test article/g
- Radioactivity in tissue (Bone, 4 Hours): 2330 ng Equivalents test article/g
- Radioactivity in tissue (Bone, 8 Hours): 2042 ng Equivalents test article/g
- Radioactivity in tissue (Bone, 24 Hours): 1322 ng Equivalents test article/g
- Radioactivity in tissue (Cecum contents, 0.5 Hour): 540 ng Equivalents test article/g
- Radioactivity in tissue (Cecum contents, 1 Hour): 882 ng Equivalents test article/g
- Radioactivity in tissue (Cecum contents, 2 Hours): 757 ng Equivalents test article/g
- Radioactivity in tissue (Cecum contents, 4 Hours): 750 ng Equivalents test article/g
- Radioactivity in tissue (Cecum contents, 8 Hours): 806 ng Equivalents test article/g
- Radioactivity in tissue (Cerebellum, 0.5 Hour): 709 ng Equivalents test article/g
- Radioactivity in tissue (Cerebellum, 1 Hour): 847 ng Equivalents test article/g
- Radioactivity in tissue (Cerebellum, 2 Hours): 529 ng Equivalents test article/g
- Radioactivity in tissue (Cerebellum, 4 Hours): 503 ng Equivalents test article/g
- Radioactivity in tissue (Cerebrum, 0.5 Hour): 596 ng Equivalents test article/g
- Radioactivity in tissue (Cerebrum, 1 Hour): 853 ng Equivalents test article/g
- Radioactivity in tissue (Cerebrum, 2 Hours): 477 ng Equivalents test article/g
- Radioactivity in tissue (Cerebrum, 4 Hours): 543 ng Equivalents test article/g
- Radioactivity in tissue (Cerebrum, 8 Hours): 348 ng Equivalents test article/g
- Radioactivity in tissue (Epididymis, 0.5 Hour): 699 ng Equivalents test article/g
- Radioactivity in tissue (Epididymis, 1 Hour): 785 ng Equivalents test article/g
- Radioactivity in tissue (Epididymis, 2 Hours): 442 ng Equivalents test article/g
- Radioactivity in tissue (Eye, 0.5 Hour): 569 ng Equivalents test article/g
- Radioactivity in tissue (Eye, 1 Hour): 584 ng Equivalents test article/g
- Radioactivity in tissue (Eye, 2 Hours): 371 ng Equivalents test article/g
- Radioactivity in tissue (Eye, 4 Hours): 413 ng Equivalents test article/g
- Radioactivity in tissue (Fat (brown), 0.5 Hour): 996 ng Equivalents test article/g
- Radioactivity in tissue (Fat (white), 4 Hours): 348 ng Equivalents test article/g
- Radioactivity in tissue (Harderian gland, 1 Hour): 1983 ng Equivalents test article/g
- Radioactivity in tissue (Harderian gland, 2 Hours): 1478 ng Equivalents test article/g
- Radioactivity in tissue (Kidney, 0.5 Hour): 3154 ng Equivalents test article/g
- Radioactivity in tissue (Kidney, 1 Hour): 3060 ng Equivalents test article/g
- Radioactivity in tissue (Kidney, 2 Hours): 2704 ng Equivalents test article/g
- Radioactivity in tissue (Kidney, 4 Hours): 2075 ng Equivalents test article/g
- Radioactivity in tissue (Kidney, 8 Hours): 2031 ng Equivalents test article/g
- Radioactivity in tissue (Kidney, 24 Hours): 1120 ng Equivalents test article/g
- Radioactivity in tissue (Lacrimal gland (Ex-orbital), 1 Hour): 1557 ng Equivalents test article/g
- Radioactivity in tissue (Lacrimal gland (Ex-orbital), 2 Hours): 1655 ng Equivalents test article/g
- Radioactivity in tissue (Lacrimal gland (Ex-orbital), 4 Hours): 1993 ng Equivalents test article/g
- Radioactivity in tissue (Lacrimal gland (Ex-orbital), 8 Hours): 1388 ng Equivalents test article/g
- Radioactivity in tissue (Lacrimal gland (Intra-orbital), 1 Hour): 2323 ng Equivalents test article/g
- Radioactivity in tissue (Lacrimal gland (Intra-orbital), 2 Hours): 1355 ng Equivalents test article/g
- Radioactivity in tissue (Large intestinal contents, 1 Hour): 519 ng Equivalents test article/g
- Radioactivity in tissue (Large intestinal contents, 4 Hours): 810 ng Equivalents test article/g
- Radioactivity in tissue (Large intestinal contents, 8 Hours): 593 ng Equivalents test article/g
- Radioactivity in tissue (Large intestine, 1 Hour): 1787 ng Equivalents test article/g
- Radioactivity in tissue (Large intestine, 2 Hours): 1716 ng Equivalents test article/g
- Radioactivity in tissue (Large intestine, 4 Hours): 1361 ng Equivalents test article/g
- Radioactivity in tissue (Liver, 0.5 Hour): 2431 ng Equivalents test article/g
- Radioactivity in tissue (Liver, 1 Hour): 3607 ng Equivalents test article/g
- Radioactivity in tissue (Liver, 2 Hours): 2005 ng Equivalents test article/g
- Radioactivity in tissue (Liver, 4 Hours): 1561 ng Equivalents test article/g
- Radioactivity in tissue (Liver, 8 Hours): 1190 ng Equivalents test article/g
Structure (SMILES): O=C(O)CCC(=O)O [^14C-succinate]
- Radioactivity in tissue (Cecum contents, 24 Hours): BLQ (BLQ: Below limit of quantitation (<320 ng equivalents test article/g).)
- Radioactivity in tissue (Cecum, 0.5 Hour): BLQ (BLQ: Below limit of quantitation (<320 ng equivalents test article/g).)
- Radioactivity in tissue (Cecum, 1 Hour): BLQ (BLQ: Below limit of quantitation (<320 ng equivalents test article/g).)
- Radioactivity in tissue (Cecum, 2 Hours): BLQ (BLQ: Below limit of quantitation (<320 ng equivalents test article/g).)
- Radioactivity in tissue (Cecum, 4 Hours): BLQ (BLQ: Below limit of quantitation (<320 ng equivalents test article/g).)
- Radioactivity in tissue (Cecum, 8 Hours): BLQ (BLQ: Below limit of quantitation (<320 ng equivalents test article/g).)
- Radioactivity in tissue (Cecum, 24 Hours): BLQ (BLQ: Below limit of quantitation (<320 ng equivalents test article/g).)
- Radioactivity in tissue (Cerebellum, 8 Hours): BLQ (BLQ: Below limit of quantitation (<320 ng equivalents test article/g).)
- Radioactivity in tissue (Cerebellum, 24 Hours): BLQ (BLQ: Below limit of quantitation (<320 ng equivalents test article/g).)
- Radioactivity in tissue (Cerebrum, 24 Hours): BLQ (BLQ: Below limit of quantitation (<320 ng equivalents test article/g).)
- Radioactivity in tissue (Epididymis, 4 Hours): BLQ (BLQ: Below limit of quantitation (<320 ng equivalents test article/g).)
- Radioactivity in tissue (Epididymis, 8 Hours): BLQ (BLQ: Below limit of quantitation (<320 ng equivalents test article/g).)
- Radioactivity in tissue (Epididymis, 24 Hours): BLQ (BLQ: Below limit of quantitation (<320 ng equivalents test article/g).)
- Radioactivity in tissue (Eye, 8 Hours): BLQ (BLQ: Below limit of quantitation (<320 ng equivalents test article/g).)
- Radioactivity in tissue (Eye, 24 Hours): BLQ (BLQ: Below limit of quantitation (<320 ng equivalents test article/g).)
- Radioactivity in tissue (Fat (brown), 1 Hour): BLQ (BLQ: Below limit of quantitation (<320 ng equivalents test article/g).)
- Radioactivity in tissue (Fat (brown), 2 Hours): BLQ (BLQ: Below limit of quantitation (<320 ng equivalents test article/g).)
- Radioactivity in tissue (Fat (brown), 4 Hours): BLQ (BLQ: Below limit of quantitation (<320 ng equivalents test article/g).)
- Radioactivity in tissue (Fat (brown), 8 Hours): BLQ (BLQ: Below limit of quantitation (<320 ng equivalents test article/g).)
- Radioactivity in tissue (Fat (brown), 24 Hours): BLQ (BLQ: Below limit of quantitation (<320 ng equivalents test article/g).)
- Radioactivity in tissue (Fat (white), 0.5 Hour): BLQ (BLQ: Below limit of quantitation (<320 ng equivalents test article/g).)
- Radioactivity in tissue (Fat (white), 1 Hour): BLQ (BLQ: Below limit of quantitation (<320 ng equivalents test article/g).)
- Radioactivity in tissue (Fat (white), 2 Hours): BLQ (BLQ: Below limit of quantitation (<320 ng equivalents test article/g).)
- Radioactivity in tissue (Fat (white), 8 Hours): BLQ (BLQ: Below limit of quantitation (<320 ng equivalents test article/g).)
- Radioactivity in tissue (Fat (white), 24 Hours): BLQ (BLQ: Below limit of quantitation (<320 ng equivalents test article/g).)
- Radioactivity in tissue (Harderian gland, 0.5 Hour): BLQ (BLQ: Below limit of quantitation (<320 ng equivalents test article/g).)
- Radioactivity in tissue (Harderian gland, 4 Hours): BLQ (BLQ: Below limit of quantitation (<320 ng equivalents test article/g).)
- Radioactivity in tissue (Harderian gland, 8 Hours): BLQ (BLQ: Below limit of quantitation (<320 ng equivalents test article/g).)
- Radioactivity in tissue (Harderian gland, 24 Hours): BLQ (BLQ: Below limit of quantitation (<320 ng equivalents test article/g).)
- Radioactivity in tissue (Lacrimal gland (Ex-orbital), 0.5 Hour): BLQ (BLQ: Below limit of quantitation (<320 ng equivalents test article/g).)
- Radioactivity in tissue (Lacrimal gland (Ex-orbital), 24 Hours): BLQ (BLQ: Below limit of quantitation (<320 ng equivalents test article/g).)
- Radioactivity in tissue (Lacrimal gland (Intra-orbital), 0.5 Hour): BLQ (BLQ: Below limit of quantitation (<320 ng equivalents test article/g).)
- Radioactivity in tissue (Lacrimal gland (Intra-orbital), 4 Hours): BLQ (BLQ: Below limit of quantitation (<320 ng equivalents test article/g).)
- Radioactivity in tissue (Lacrimal gland (Intra-orbital), 8 Hours): BLQ (BLQ: Below limit of quantitation (<320 ng equivalents test article/g).)
- Radioactivity in tissue (Lacrimal gland (Intra-orbital), 24 Hours): BLQ (BLQ: Below limit of quantitation (<320 ng equivalents test article/g).)
- Radioactivity in tissue (Large intestinal contents, 0.5 Hour): BLQ (BLQ: Below limit of quantitation (<320 ng equivalents test article/g).)
- Radioactivity in tissue (Large intestinal contents, 24 Hours): BLQ (BLQ: Below limit of quantitation (<320 ng equivalents test article/g).)
- Radioactivity in tissue (Large intestine, 0.5 Hour): BLQ (BLQ: Below limit of quantitation (<320 ng equivalents test article/g).)
- Radioactivity in tissue (Large intestine, 8 Hours): BLQ (BLQ: Below limit of quantitation (<320 ng equivalents test article/g).)
- Radioactivity in tissue (Large intestine, 24 Hours): BLQ (BLQ: Below limit of quantitation (<320 ng equivalents test article/g).)
